From patent US20140243411A1 (priority 2011, published 2014)

Key:
[1] = Physical-chemical characterization: viscosity and density; format: physicochemical
Protocol: (§1) More than a dozen esters and amide derivatives of DTPA were synthesized. […] C2E5 is an oil with a viscosity of 163 cps at 25° C. […] The density of C2E5 was determined to be 1.119 g/mL. […] The intrinsic partition coefficient (log P) of C2E5 is difficult to measure due to its instability at high pH. Thus, the log D6.0 was determined by measuring the partitioning of C2E5 into octanol and water phases.
The solvent evaporation method was subsequently used to prepare the C2E5 non-aqueous gel formulations.

[2] = pH 7.4; Sueda et al.; cited from earlier work
[3] = log D by partitioning into octanol and water phases; format: physicochemical; conditions: pH 6.0, octanol and water
Protocol: as §1

[4] = In vitro percutaneous permeation of C2E5 nonaqueous gel spiked with [14C]-C2E5; format: in vitro ADME, Sprague-Dawley (SD) rat
Protocol: An in vitro permeation study was carried out using a vertical diffusion cell system equipped with an autosampler (Hanson Microette Autosampling System, Hanson Research Co., USA). The area for permeation was 1.767 cm^2, and the receiver compartment volume was 7 mL. The experiments were run at 32° C. and stirred magnetically at 400 rpm. The receiver medium was 0.1M phosphate buffer (pH 7.4). SD rat skin samples were prepared by harvesting dorsal skin samples from freshly euthanized (<1 h) SD rats (n=9, 200-300 g). The skin was shaved and the subcutaneous fat tissue was carefully peeled from the dermis layer to remove potential interference due to high levels of esterase activity in subcutaneous tissue. The processed skin samples were inspected visually for membrane integrity. The qualified skin samples were stored at −20° C. until use. The SD rat skin samples were first allowed to thaw for at least 1 h in the receiver medium, and then mounted and clamped between the receiver and donor compartments of the diffusion cells. […] ([^14C]-C2E5; 50 mCi/mmol) labeled at carbon-1 (carbonyl carbon) was purchased from American Radiolabeled Chemicals, Inc., St. Louis, Mo.).
Collected samples were dispensed into Ultima Gold™ scintillation cocktail at a ratio of 100 μL:10 mL and assayed directly for radioactivity by liquid scintillation counting (LSC) using a Packard TriCarb 3100TR (PerkinElmer Life and Analytical Sciences) with automatic quench correction. Samples were counted for 10 min or until a 5% confidence level was achieved. The samples were subsequently assayed for intact C2E5 and its metabolites using HPLC-FSA. The cumulative releases of C2E5 and its metabolites were plotted as a function of time.
Fick's law (Equation 4) has been used as a simple model to describe the steady-state diffusion of drug through the skin:
where Jss=steady-state flux (mol/hr); D=drug diffusivity (cm^2/hr); h=membrane thickness (cm); Ksc/veh=drug's stratum corneum-vehicle partition coefficient; Cveh=drug concentration (mg/cm^3) in the vehicle; and A=surface area (cm^2). The cumulative amount of C2E5 and its metabolites permeated through the SD rat skin versus time is presented in FIG. 1, The overall concentrations of C2E5 and its metabolites in receiver compartment at different time points were calculated based on Equation 5.
The concentrations of C2E5 and its metabolites in the collected samples from the receiver compartment at different time points were analyzed by HPLC-FSA.

[5] = tested on: rats contaminated with ^241Am; assay: Radionuclide decorporation efficacy study in rats contaminated with 241Am (Example 10): excretion, tissue content, liver and skeleton burden; format: in vivo, SD rats
Protocol: All animal studies were conducted according to a protocol approved by the University of North Carolina at Chapel Hill Institutional Animal Care and Use Committee (IACUC). Ten-week-old adult female SD rats weighing from 200 to 300 g were used in these studies (Charles River Labs, Raleigh, N.C.). Food and water were given ad libitum. The animal room was kept at a controlled temperature (23° C.) and light cycle (light exposure from 8 AM to 8 PM). For the duration of the study, the rats were housed in metabolic cages individually with daily urine and feces collection until euthanasia on Day 7.
To evaluate the efficacy of transdermal delivery of the C2E5 nonaqueous gel, a radionuclide decorporation efficacy study was conducted in rats contaminated with ^241Am. Adult female SD rats were anesthetized with 2-3% isoflurane. Dorsal skin between the cervical vertebrae and anterior thoracic vertebrae was clipped with caution before all animals were contaminated with [^241Am]-Americium nitrate solution (250 nCi, 0.1 mL) via an i.m. injection in anterior thigh muscle. The C2E5 nonaqueous gel was applied at dose of 1000 mg/kg using a cotton swap to a 6 cm^2 (2 cm×3 cm) area of the clipped dorsal region immediately after contamination. A jacket with plastic dorsal insert (VWR International) was placed on the rat to protect the gel application region. The mass of C2E5 gel applied was recorded for each animal to permit the actual dose determination. The animals were housed in metabolic cages individually after C2E5 treatment and were euthanized 7 days after contamination. Positive and negative controls included animals administered Ca-DTPA intravenously and animals without any treatment. The animals were observed once daily and their body weights recorded at pre-dose and prior to necropsy, Urine and feces were collected daily until euthanasia, when the liver, kidneys, both femurs and the muscle tissue from around the injection site were also collected. Cage washes were collected at the end of each experiment. As ˜35% of the decay of ^241Am is associated with photon emissions of 59.7 keV, ^241Am present in samples was quantified using a gamma counter (2470 Wizard 2, Perkin Elmer). The samples were counted for one minute using a 40-80 keV energy detection window and were background-corrected. Additionally, ^241Am activity was quantified in 2×0.1 mL aliquots of the dosing solution. For all samples, ^241Am content was expressed as a percentage of the initial dose.
where % ID represents the percent of injected dose. Where data for both femurs were available, an estimate of the total skeletal burden was made using the method of Volf with modification in which the counts in the contra-lateral femur were multiplied by 19 and added to the counts in the ipsi-lateral femur. The modification for the literature method was due to higher ^241Am content in ipsi-lateral femur as a result of i.m. injection in anterior thigh muscle.
Statistically significant differences among groups were determined using one-way ANOVA with Tukey's post hoc comparison. All measurements are expressed as mean±standard deviation (S.D.). The level of significance was set at p<0.05.

[6] = rats, seven days following a single dose, Ca-DTPA 14 mg/kg i.v., C2E5 1000 mg/kg transdermal
[7] = seven days after single dose, Ca-DTPA 14 mg/kg i.v., C2E5 1000 mg/kg transdermal gel
[8] = seven days, 1000 mg/kg transdermal

## CCOC(=O)CN(CCN(CC(=O)OCC)CC(=O)OCC)CCN(CC(=O)OCC)CC(=O)OCC [Formulation C2E5, penta-substituted ethyl ester of DTPA]
[1]
  density: 1.119 g/mL
[1]; 25° C.
  viscosity: 163 cps
[2]
  solubility of C2E5: 2200 µg/mL
[3]
  logD: 2.2
[4]; at 8 h
  cumulative amount of C2E5 and its metabolites permeated through the rat skin: 1.98 μmol/cm^2
[4]; at 8 h, gel 6% EC10, 25% C2E5, 69% MIGLYOL 840
  initially applied C2E5 dose permeated through the rat skin (C2E5 and its metabolites): ~10%
[4]; at 23 h
  cumulative amount of C2E5 and its metabolites permeated through the rat skin: 3.55 μmol/cm^2
[4]; gel 6% EC10, 25% C2E5, 69% MIGLYOL 840
  diffusional lag time through SD rat skin: 0.33 h
[4]; steady-state between 2 h and 7 h, gel 6% EC10, 25% C2E5, 69% MIGLYOL 840
  Jss per unit area through SD rat skin: 0.276 μmol/cm^2/h
[5]; contra-lateral femur × 19 + ipsi-lateral femur, rats, seven days following a single dose, Ca-DTPA 14 mg/kg i.v. (n = 3), C2E5 1000 mg/kg transdermal
  Skeleton Burden (% of ID): 9.6 ± 0.9 % of ID
[5]; rats, seven days following a single dose, Ca-DTPA 14 mg/kg i.v. (one animal excluded), C2E5 1000 mg/kg transdermal
  Ipsi-lateral femur content of 241Am: 0.54 ± 0.10 % of ID of ^241Am
[5]; [6]
  % of Reduction over control (liver burden): 49.1%
  % of Reduction over control (skeleton burden): 41.1%
  Contra-lateral femur content of 241Am: 0.48 ± 0.05 % of ID of ^241Am
  Kidney content of 241Am: 0.63 ± 0.07 % of ID of ^241Am
  Liver Burden (% of ID): 8.4 ± 2.0 % of ID
  Liver content of 241Am: 8.4 ± 2.0 % of ID of ^241Am
  Muscle-contra content of 241Am: 0.0078 ± 0.0017 % of ID of ^241Am per gram of muscle-contra
  Muscle-ipsi content of 241Am: 44.3 ± 2.0 % of ID of ^241Am
  Pelt at injection site content of 241Am: 0.84 ± 0.66 % of ID of ^241Am
  Total decorporation (% of ID of 241Am): 26.2 ± 2.7 % of ID of ^241Am
[5]; seven days after single dose, Ca-DTPA 14 mg/kg i.v., C2E5 1000 mg/kg transdermal
  reduction of liver burden of ^241Am versus control group: 49.1%
[5]; [7]
  % of Enhanced decorporation over control: 279.9%
  Cumulative excretion of ^241Am In feces: 7.8 ± 1.2 % of ID
  Cumulative excretion of ^241Am In urine: 18.4 ± 1.8 % of ID
  Cumulative excretion of ^241Am Total: 26.2 ± 2.7 % of ID
[5]; [8]
  ^241Am burden in the ipsi-lateral femur versus no-treatment control: statistically significant reduction
  skeleton burden of ^241Am versus control group: statistically significant reduction
